# What was measured:
# [1] = test system: nuclear PR-1a/GUS transformants; assay: GUS protein accumulation in nuclear PR-1a/GUS transformants after induction (Western blot); type: in vivo; details: nuclear PR1a/GUS transformants
# Procedure: (§1) Total RNA was extracted from frozen tissue of BTH and wettable powder-sprayed control and PR-1a/T7 polymerase×plastid T7/GUS plants, and Northern blot analysis on 5 μg RNA samples was carried out as described (Ward et al. (1991) The Plant Cell 3, 1085-1094) using as a probe a 500 bp radiolabelled 5′ fragment of the GUS gene. […] Example C12 Determination of GUS protein content of transgenic plants In order to determine the amount of GUS present in the tissues of transgenic plants, chemiluminescent (Amersham) Western blot analysis was performed according to the manufacturer's instructions and Harlow and Lane (1988) Antibodies: A laboratory manual, Cold Spring Harbor Laboratory, Cold Spring Harbor, using GUS antisera purchased from Molecular Probes and purified GUS protein standards (Sigma). Proteins from frozen, ground leaf material harvested as above were solubilized by extraction in 50 mM Tris pH 8.0, 1 mM EDTA, 1 mM PTT, 1 mM AEBSP, and 1 mM DTT and 5 to 25 μg protein run on each lane of 10% polyacrylamide gels. GUS protein accumulation in the plastid transformed plants is sustained over 7-28 days and beyond, and is extraordinarily high (much higher than peak GUS accumulation for nuclear PR-1a/GUS), exceeding 20% of total protein by 28 days.
# [2] = test system: PR-1a/T7 polymerase x plastid T7/GUS plants (pPH110X6b x 4276P); assay: GUS mRNA content of plants sprayed with BTH (Northern blot, ethidium bromide scan); type: in vivo, Nicotiana tabacum
# Description: (§2) The N. tabacum ‘Xanthi’ plastid transformant line 4276P described by McBride et al. ((1994) PNAS 91: 7301-7305) was pollinated by homozygous NT-110X6b5 plants containing the PR-1a/T7 RNA polymerase. 4276P differs from pC8 only with respect to (a) the promoter used to express the aadA selectable marker (which has the 16S ribosomal RNA gene promoter rather than the psbA gene promoter used in pC8), (b) the presence of a psbA gene 3′ untranslated region between the GUS gene and the T7 terminator, and (c) the absence of a lac operator and duplicated StuI restriction site sequence in the T7 promoter. F1 plants from this cross heterozygous for the PR-1a/T7 polymerase nuclear expression cassette and homoplastidic for the T7/GUS plastid expression cassette were germinated in soil. Upon reaching a height of 20 to 40 cm the plants were sprayed with either an inert wettable powder suspension or a formulation of the inducer compound BTH with wettable powder. Control untransformed N. tabacum ‘Xanthi’, NT-110X6b-5, and 4276P plants germinated in soil at the same time were sprayed in a similar manner. Plant material (one leaf from each of three independent plants of each genotype) was harvested just prior to spraying and at 8 hours and 1, 2, 3, 7, and 28 days following spraying, and flash frozen as described above.
# as §1
# [3] = test system: PR-1a/T7 polymerase x plastid T7/GUS plants; assay: GUS protein content of plants after BTH induction (Western blot); type: in vivo, Nicotiana tabacum; details: plastid transformed plants
# Description: as §2, with “above. […]” for “above.”
# [4] = test system: PR-1a/T7 polymerase x plastid T7/cellulase plants; assay: E5 cellulase mRNA content of plants after BTH induction (Northern blot); type: in vivo, Nicotiana tabacum
# Description: Homozygous NT-10× and NT-110N plants containing the PR-1a-T7 RNA Pol construct were used to pollinate homoplastidic Nt_pC8E5 and Nt_pC+E5 plastid transformant lines carrying the maternally inherited pC8E5 and pC+E5 cellulase constructs. The Nt_pC+E5×NT-110X or NT--110N, and Nt_pC8E5×NT-110X or NT110N F1 progeny (which were heterozygous for the PR-1/T7 polymerase nuclear expression cassette and homoplastidic for the T7/cellulase plastid expression cassette) were germinated on soil. Upon reaching a height of […], the plants were sprayed with the inducer compound BTH to elicit T7 Pol-regulated expression of the E5 cellulase gene that is localized to the plastids. […]
# Total RNA was extracted from frozen tissue of BTH and wettable powder-sprayed control and PR-1a/7 polymerase×plastid T7/cellulase plants, and Northern blot analysis on 5 μg RNA samples was carried out as described (Ward et al. (1991) The Plant Cell 3, 1085-1094) using as a probe a radiolabelled DNA fragment containing the E5 cellulase coding sequence. Relative E5 cellulase mRNA accumulation at each time point was assessed by quantifying the radioactivity in bands hybridizing with the radiolabelled E5 cellulase probe in order to determine time courses of fold mRNA induction. […] Prior to induction, no cellulase mRNA is detected.
# [5] = test system: PR-1a/T7 polymerase x plastid T7/GUS plants (pPH110X6b x 4276P); assay: GUS activity in leaf extracts of plants sprayed with BTH (fluorometric MUG assay); type: in vivo, Nicotiana tabacum
# Description: as §2
# Frozen leaf tissue was ground in a mortar with a pestle in the presence of liquid nitrogen to produce a fine powder. Leaf extracts were prepared in GUS extraction buffer (50 mM sodium phosphate pH7.0, 0.1% Triton-X 100, 0.1% sarkosyl, 10 mM β-mercaptoethanol) as described by Jefferson, R. A. et al. (1986), PNAS USA 83, 8447-8451. The reactions were carried out in the wells of opaque microtiter plates by mixing 10 ul of extract with 65 ul of GUS assay buffer (50 mM sodium phosphate pH 7.0, 10 mM EDTA, 0.1% Triton X-100, 10 mM β-mercaptoethanol) containing 4-methyl umbelliferyl glucuronide […] at a final concentration of 2 mM in a total volume of 75 ul. The plate was incubated at 37° C. for 30 minutes and the reaction was stopped by the addition of 225 ul of 0.2 M sodium carbonate. The concentration of fluorescent indicator released was determined by reading the plate on a Flow Labs Fluoroskan II ELISA plate reader. Duplicate fluorescence values for each sample were averaged, and background fluorescence (reaction without MUG) was subtracted to obtain the concentration of MU for each sample. The amount of protein in each extract was determined using the bicinchoninic acid technique (BCA, Pierce Biochemicals) according to the manufacturer's recommendations except that protein extracts were pretreated with iodoacetamide (Sigma) to eliminate background signal caused by the reductant (β-mercaptoethanol) present in the extraction buffer. The specific activity was determined for each sample and was expressed in pmoles MU/mg protein/minute. For each tissue sample assayed from a particular time point following BTH application, the specific activity of the BTH-induced sample was divided by the specific activity of the pre-BTH treatment control sample, thus yielding the induction of GUS expression. (See Table I)
smiles,measurement,setting,value
"CSC(=O)c1cccc2nnsc12 [BTH, benzo(1,2,3)thiadiazole-7-carbothioic acid S-methyl ester]",GUS protein accumulation by 28 days,[1]; 28 days,declines to the limits of detection
same,time of peak GUS protein accumulation,[1]; from induction,about 3 days
same,% Total RNA (GUS RNA),[2]; 0.3 days after BTH spray,<0.013%
same,% Total RNA (GUS RNA),[2]; 1.0 days after BTH spray,0.108%
same,% Total RNA (GUS RNA),[2]; 2.0 days after BTH spray,0.873%
same,% Total RNA (GUS RNA),[2]; 3.0 days after BTH spray,2.663%
same,% Total RNA (GUS RNA),[2]; 7.0 days after BTH spray,7.745%
same,% Total RNA (GUS RNA),[2]; 28.0 days after BTH spray,24.596%
same,"peak level of chemically inducible GUS RNA in the plastid, of total ethidium-stainable RNA",[2]; between 7 and 28 days after induction with BTH,14%
same,peak GUS RNA relative to peak chemically inducible GUS mRNA accumulation for nuclear PR-1a/GUS transformants,[2]; plastid vs nuclear PR-1a/GUS transformants,over 1000 fold
same,"GUS protein accumulation, of total protein",[3]; by 28 days,exceeding 20%
same,time of peak/sustained GUS protein accumulation,[3]; from induction,7 to 28 days
same,time of peak cellulase mRNA accumulation,[4]; after induction,14 days
same,E5 cellulase mRNA accumulation following induction,"[4]; plant material of example C6, none detected prior to induction",significant cellulase mRNA accumulation
same,GUS activity (pmol MU/mg/min),[5]; 0.3 days after BTH spray,434 pmol MU/mg/min
same,GUS activity (pmol MU/mg/min),[5]; 1.0 days after BTH spray,"14,516 pmol MU/mg/min"
same,GUS activity (pmol MU/mg/min),[5]; 2.0 days after BTH spray,"230,031 pmol MU/mg/min"
same,GUS activity (pmol MU/mg/min),[5]; 3.0 days after BTH spray,"456,486 pmol MU/mg/min"
same,GUS activity (pmol MU/mg/min),[5]; 7.0 days after BTH spray,"2,424,725 pmol MU/mg/min"
same,GUS activity (pmol MU/mg/min),[5]; 28.0 days after BTH spray,"1,922,466 pmol MU/mg/min"

# — patent publication US7838732B2, “Transgenic plants expressing a cellulase” (Syngenta Participations AG, priority 1996, dated 2010)
